pIC50: −log10 of the molar value.
Legend:
Jurkat cells = experiment: Prevention of Fas-induced apoptosis in Jurkat cells (WST-8); type: cell-based; conditions: Homo sapiens, 10 micromolar, read-out: % Prevention of Fas - induced Jurkat cell apoptosis at 10 micromolar
Method: Compounds of the present invention were evaluated in Jurkat cells, a human T-lymphocyte cell line, to evaluate compounds ability to inhibit apoptotic cell death. Jurkat cells, Clone E6-1 (ATCC TIB-152) were grown in culture maintain a cell density between 0.5-2 million cells/mL. Cells were tested for viability and countion with typan blue stain before use. Test compounds were addedd to 96 well plates and Jurkat cells were added at a concentration of approximately 100,000 cells per well and mixed thoroughly by action of pipetting. Plated cells were incubated for 1 hour at 37 degrees C. under an atmosphere of 5% CO2. Anti-Fas antibody was added and mixed by pipet action. Plates were incubated for 20 hours at 37 degrees C. under an atmosphere of 5% CO2. 10 microliters of thawed WST-8 solution was added to each well and incubated for 4 hours. Absorbance was measured at 450 nm and control reading at […] using a SpectraMax ID5 plate reader. Apoptotic cell death is executed by caspases 3, 7 and 6. Compounds that lack activity against these caspases will not prevent the death of Jurkat cells and is a functional test of selectivity for inflammatory over apoptotic caspases.
IC50 values to protect against Fas induced apoptosis and improve survival of Jurkat cells were determined from dose response studies.

Caspase-1 = biological target: T1, Caspase-1 (Homo sapiens, UniProt P29466); experiment: Caspase-1 enzyme inhibition assay (Ac-YVAD-pNA substrate), IC50; type: biochemical
T1 construct: purchased Enzo Biosciences
T1 sequence (P29466 120-297 limits assumed): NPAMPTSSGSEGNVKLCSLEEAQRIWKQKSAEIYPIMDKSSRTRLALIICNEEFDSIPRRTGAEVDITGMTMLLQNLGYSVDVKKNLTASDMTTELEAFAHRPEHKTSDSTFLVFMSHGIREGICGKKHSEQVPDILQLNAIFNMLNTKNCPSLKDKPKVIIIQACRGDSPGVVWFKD
T1 sequence (P29466 317-404 limits assumed): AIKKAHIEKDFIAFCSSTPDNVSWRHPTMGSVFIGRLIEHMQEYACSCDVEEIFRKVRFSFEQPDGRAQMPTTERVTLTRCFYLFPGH
Method: (§1) Human caspases were purchased from Enzo Biosciences and used according to the manufacturer's instructions. An exemplary caspase assay, for Caspase-1, is provided below:
Caspase-1 was diluted to 10 U/μl in assay buffer consisting of 50 mM HEPES, pH 7.4, 100 mM NaCl, 0.1% CHAPS, 1 mM EDTA, 10% glycerol and 10 mM DTT.
45 μl of assay buffer was added into ½ volume microtiter plate. The plate was allowed to equilibrate to assay temperature. 5 μl of Caspase-1 (10 U/μl) was added to each appropriate well. Two 2 blank wells containing assay buffer alone without Caspase-1 were included on the plate.
The reaction was started by the addition of 50 μl Ac-YVAD-pNA substrate, for a final substrate concentration of 200 μM. The reaction was continuously monitored at 405 nm. The data was graphed as OD405 nm vs time, and the slope was determined over the linear portion of the curve. The rates in OD/min were converted to substrate/min using an extinction coefficient for p-nitroaniline of 10,500M-1 cm-1, and were adjusted for pathlength of sample. […]

IL-1β = experiment: Inhibition of LPS-stimulated IL-1β in THP-1 cells (ELISA); type: cell-based, human; conditions: 10 micromolar; for inhibition at 10 µM: Homo sapiens, read-out: Percent Inhibition of IL1-β
Method: Compounds in the present invention were tested in THP-1 cells, a human monocyte cell line, to assess the inhibition of the inflammatory cytokine IL-1β. THP-1 cells (ATCC TIB-202) were grown in culture and seeded in 96 well plates at a concentration of 200,000 cells per well with a total volume of 150 μL. Plated cells were incubated overnight at 37 degrees C. under an atmosphere of 5% CO2. Media was removed from cells which were washed with PBS. Test compounds were diluted in DMSO stock solution and serially diluted appropriately for initial screening and IC50 determinations. LPS in serum free media (140 μL of […]) was added to each well to stimulate IL-1β production. IL-1β was measured by ELISA assay kit (R&D Systems) per the manufacturers instructions.
IC50 values for the inhibition of IL-1 in THP 1 cells were determined from dose response studies.

Caspase 6 = biological target: T2, Caspase 6 (Homo sapiens, UniProt P55212); experiment: Caspase 6 enzymatic inhibition assay, IC50; type: biochemical; conditions: read-out: Caspase 6 enzyme inhibition IC50
T2 construct: purchased Enzo Biosciences
T2 sequence (P55212 24-179 limits assumed): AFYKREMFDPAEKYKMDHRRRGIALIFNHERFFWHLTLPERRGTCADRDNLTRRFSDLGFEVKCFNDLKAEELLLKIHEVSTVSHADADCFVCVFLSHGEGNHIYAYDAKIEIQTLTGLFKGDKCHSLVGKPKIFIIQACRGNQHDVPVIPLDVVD
T2 sequence (P55212 194-293 limits assumed): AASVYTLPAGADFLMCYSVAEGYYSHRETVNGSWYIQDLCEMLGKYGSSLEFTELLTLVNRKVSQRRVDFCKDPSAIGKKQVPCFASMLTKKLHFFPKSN
Method: as §1
(§2) Enzymatic assays were conducted for Caspase-3, 6 and 7 activity according to the manufacture's instructions.

Caspase-3 = biological target: T3, Caspase-3 (Homo sapiens, UniProt P42574); experiment: Caspase-3 enzymatic inhibition assay, IC50; type: biochemical; conditions: read-out: Caspase 3 enzyme inhibition IC50
T3 construct: purchased Enzo Biosciences
T3 sequence (P42574 29-175 limits assumed): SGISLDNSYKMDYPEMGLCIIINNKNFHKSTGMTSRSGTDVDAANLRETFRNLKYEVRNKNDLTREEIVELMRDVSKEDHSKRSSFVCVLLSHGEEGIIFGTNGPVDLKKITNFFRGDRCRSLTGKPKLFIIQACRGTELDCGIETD
T3 sequence (P42574 176-277 limits assumed): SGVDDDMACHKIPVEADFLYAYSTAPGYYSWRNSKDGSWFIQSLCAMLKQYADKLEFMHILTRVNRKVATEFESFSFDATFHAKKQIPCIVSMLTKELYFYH
Method: as §1, §2

Caspase 7 = biological target: T4, Caspase 7 (Homo sapiens, UniProt P55210); experiment: Caspase 7 enzymatic inhibition assay, IC50; type: biochemical; conditions: read-out: Caspase 7 enzyme inhibition IC50
T4 construct: purchased Enzo Biosciences
T4 sequence (P55210 24-198 limits assumed): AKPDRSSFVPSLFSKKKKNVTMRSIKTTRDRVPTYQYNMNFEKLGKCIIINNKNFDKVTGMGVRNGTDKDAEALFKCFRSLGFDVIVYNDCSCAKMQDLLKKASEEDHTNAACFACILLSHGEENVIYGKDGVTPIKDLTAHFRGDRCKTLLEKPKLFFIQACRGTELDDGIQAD
T4 sequence (P55210 207-303 limits assumed): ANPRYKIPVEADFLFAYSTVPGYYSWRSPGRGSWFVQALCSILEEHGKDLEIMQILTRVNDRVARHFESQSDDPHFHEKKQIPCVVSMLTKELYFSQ
Method: as §1, §2

`C[C@H](NC(=O)C(=O)Nc1c(F)cccc1F)C(=O)N[C@@H](CCOCc1ccccc1)C(=O)COc1c(F)c(F)cc(F)c1F` [Example 1, N^1-((S)-1-(((S)-5-(Benzyloxy)-2-oxo-1-(2,3,5,6-tetrafluorophenoxy)pentan-3-yl)amino)-1-oxopropan-2-yl)-N^2-(2,6-difluorophenyl)oxalamide] showed an inhibition at 10 µM (Jurkat cells) of at most 10%, a pIC50 (Caspase-1) of 7.00 to 8.00 and an inhibition at 10 µM (IL-1β) of 50 to 90%. For the same compound, the pIC50 (Caspase 6) was at most 6.00, the pIC50 (Caspase-3) was at most 6.00 and the pIC50 (Caspase 7) was at most 6.00.

With `C[C@H](NC(=O)C(=O)Nc1c(F)cccc1F)C(=O)N[C@@H](CCO)C(=O)COc1c(F)c(F)cc(F)c1F` [Example 2, N^1-(2,6-Difluorophenyl)-N^2—((S)-1-(((S)-5-hydroxy-2-oxo-1-(2,3,5,6-tetrafluorophenoxy)pentan-3-yl)amino)-1-oxopropan-2-yl)oxalamide] the inhibition at 10 µM (Jurkat cells) was at most 10%, the pIC50 (Caspase-1) was 7.00 to 8.00 and the inhibition at 10 µM (IL-1β) was 50 to 90%. For the same compound, the pIC50 (Caspase 6) was at most 6.00, the pIC50 (Caspase-3) was at most 6.00 and the pIC50 (Caspase 7) was at most 6.00.

Work on `C[C@H](NC(=O)C(=O)Nc1c(F)cccc1F)C(=O)N[C@@H](CCOCc1ccc(Cl)cc1)C(=O)COc1c(F)c(F)cc(F)c1F` [Example 3, N^1—((S)-1-(((S)-5-((4-Chlorobenzyl)oxy)-2-oxo-1-(2,3,5,6-tetrafluorophenoxy)pentan-3-yl)amino)-1-oxopropan-2-yl)-N^2-(2,6-difluorophenyl)oxalamide] yielded an inhibition at 10 µM (Jurkat cells) of at most 10%, a pIC50 (Caspase-1) of 6.00 to 7.00 and an inhibition at 10 µM (IL-1β) of 25 to 50%. The pIC50 (Caspase 6) was at most 6.00, the pIC50 (Caspase-3) was at most 6.00 and the pIC50 (Caspase 7) was at most 6.00.

Compound `C[C@H](NC(=O)C(=O)Nc1c(F)cccc1F)C(=O)N[C@@H](CCC(=O)O)C(=O)COc1cc(C(F)(F)F)nc(C(F)(F)F)n1` [Example 33, (S)-6-((2,6-bis(trifluoromethyl)pyrimidin-4-yl)oxy)-4-((S)-2-(2-((2,6-difluorophenyl)amino)-2-oxoacetamido)propanamido)-5-oxohexanoic acid] has a pIC50 (Caspase-1) of at least 8.00, a pIC50 (Caspase 6) of at most 6.00 and a pIC50 (Caspase-3) of at most 6.00. It also gave a pIC50 (Caspase 7) of at most 6.00.

`C[C@H](NC(=O)C(=O)Nc1ccc(OC(F)(F)F)cc1)C(=O)N[C@@H](CCC(=O)O)C(=O)COc1c(F)c(F)cc(F)c1F` [Example 34, (S)-5-oxo-4-((S)-2-(2-oxo-2-((4-(trifluoromethoxy)phenyl)amino)acetamido)propanamido)-6-(2,3,5,6-tetrafluorophenoxy) hexanoic acid] gave a pIC50 (Caspase-1) of at least 8.00, a pIC50 (Caspase 6) of at most 6.00 and a pIC50 (Caspase-3) of at most 6.00. For the same compound, the pIC50 (Caspase 7) was at most 6.00.

With `C[C@H](NC(=O)C(=O)Nc1cnc2ccccc2c1)C(=O)N[C@@H](CCC(=O)O)C(=O)COc1c(F)c(F)cc(F)c1F` [Example 35, (S)-5-oxo-4-((S)-2-(2-oxo-2-(quinolin-3-ylamino)acetamido)propanamido)-6-(2,3,5,6-tetrafluorophenoxy)hexanoic acid] the pIC50 (Caspase-1) was at least 8.00, the pIC50 (Caspase 6) was at most 6.00 and the pIC50 (Caspase-3) was at most 6.00. For the same compound, the pIC50 (Caspase 7) was at most 6.00.

Work on `C[C@H](NC(=O)C(=O)Nc1cccc2cccnc12)C(=O)N[C@@H](CCC(=O)O)C(=O)COc1c(F)c(F)cc(F)c1F` [Example 36, (S)-5-oxo-4-((S)-2-(2-oxo-2-(quinolin-8-ylamino)acetamido)propanamido)-6-(2,3,5,6-tetrafluorophenoxy)hexanoic acid] yielded a pIC50 (Caspase-1) of at least 8.00, a pIC50 (Caspase 6) of at most 6.00 and a pIC50 (Caspase-3) of at most 6.00. For the same compound, the pIC50 (Caspase 7) was at most 6.00.

With `C[C@H](NC(=O)C(=O)Nc1ccncc1)C(=O)N[C@@H](CCC(=O)O)C(=O)COc1c(F)c(F)cc(F)c1F` [Example 37, (S)-5-oxo-4-((S)-2-(2-oxo-2-(pyridin-4-ylamino)acetamido)propanamido)-6-(2,3,5,6-tetrafluorophenoxy)hexanoic acid] the pIC50 (Caspase-1) was at least 8.00, the pIC50 (Caspase 6) was at most 6.00 and the pIC50 (Caspase-3) was at most 6.00. It also gave a pIC50 (Caspase 7) of at most 6.00.

Work on `C[C@H](NC(=O)C(=O)Nc1c(F)cccc1F)C(=O)N[C@H](CCC(=O)O)C(=O)COc1c(F)c(F)cc(F)c1F` [Example 38, (R)-4-((S)-2-(2-((2,6-difluorophenyl)amino)-2-oxoacetamido)propanamido)-5-oxo-6-(2,3,5,6-tetrafluorophenoxy)hexanoic acid] yielded a pIC50 (Caspase-1) of at least 8.00, a pIC50 (Caspase 6) of at most 6.00 and a pIC50 (Caspase-3) of at most 6.00. The pIC50 (Caspase 7) was at most 6.00.

`C[C@H](NC(=O)C(=O)Nc1ccccn1)C(=O)N[C@@H](CCC(=O)O)C(=O)COc1c(F)c(F)cc(F)c1F` [Example 39, (S)-5-oxo-4-((S)-2-(2-oxo-2-(pyridin-2-ylamino)acetamido)propanamido)-6-(2,3,5,6-tetrafluorophenoxy)hexanoic acid] showed a pIC50 (Caspase-1) of at least 8.00, a pIC50 (Caspase 6) of at most 6.00 and a pIC50 (Caspase-3) of at most 6.00. It also gave a pIC50 (Caspase 7) of at most 6.00.

`C[C@H](NC(=O)C(=O)Nc1cccnc1)C(=O)N[C@@H](CCC(=O)O)C(=O)COc1c(F)c(F)cc(F)c1F` [Example 40, (S)-5-oxo-4-((S)-2-(2-oxo-2-(pyridin-3-ylamino)acetamido)propanamido)-6-(2,3,5,6-tetrafluorophenoxy)hexanoic acid] gave a pIC50 (Caspase-1) of at least 8.00, a pIC50 (Caspase 6) of at most 6.00 and a pIC50 (Caspase-3) of at most 6.00. It also gave a pIC50 (Caspase 7) of at most 6.00.

In the case of `Cc1cc(C)nc(NC(=O)C(=O)N[C@@H](C)C(=O)N[C@@H](CCC(=O)O)C(=O)COc2c(F)c(F)cc(F)c2F)n1` [Example 41, (S)-4-((S)-2-(2-((4,6-dimethylpyrimidin-2-yl)amino)-2-oxoacetamido)propanamido)-5-oxo-6-(2,3,5,6-tetrafluorophenoxy)hexanoic acid], the pIC50 (Caspase-1) was at least 8.00, the pIC50 (Caspase 6) was at most 6.00 and the pIC50 (Caspase-3) was at most 6.00. For the same compound, the pIC50 (Caspase 7) was at most 6.00.

`C[C@H](NC(=O)C(=O)Nc1ncccn1)C(=O)N[C@@H](CCC(=O)O)C(=O)COc1c(F)c(F)cc(F)c1F` [Example 42, (S)-5-oxo-4-((S)-2-(2-oxo-2-(pyrimidin-2-ylamino)acetamido)propanamido)-6-(2,3,5,6-tetrafluorophenoxy)hexanoic acid] was tested, and the pIC50 (Caspase-1) was at least 8.00, the pIC50 (Caspase 6) was at most 6.00 and the pIC50 (Caspase-3) was at most 6.00. For the same compound, the pIC50 (Caspase 7) was at most 6.00.

In the case of `C[C@H](NC(=O)C(=O)Nc1c(F)cccc1F)C(=O)N[C@@H](CC(=O)O)C(=O)COc1c(F)c(F)cc(F)c1F` [IDN-7314, reference compound], the “Percent Inhibition of IL1-β” value (IL-1β) was “A (A > 90%)”.
